Biological target: T1, LIFR (leukemia inhibitory factor receptor) (Homo sapiens, UniProt P42702)
T1 construct: with LIF
Experiment: cell-free AlphaScreen, inhibition of LIF/LIFR binding

T1 sequence (P42702 45-1097): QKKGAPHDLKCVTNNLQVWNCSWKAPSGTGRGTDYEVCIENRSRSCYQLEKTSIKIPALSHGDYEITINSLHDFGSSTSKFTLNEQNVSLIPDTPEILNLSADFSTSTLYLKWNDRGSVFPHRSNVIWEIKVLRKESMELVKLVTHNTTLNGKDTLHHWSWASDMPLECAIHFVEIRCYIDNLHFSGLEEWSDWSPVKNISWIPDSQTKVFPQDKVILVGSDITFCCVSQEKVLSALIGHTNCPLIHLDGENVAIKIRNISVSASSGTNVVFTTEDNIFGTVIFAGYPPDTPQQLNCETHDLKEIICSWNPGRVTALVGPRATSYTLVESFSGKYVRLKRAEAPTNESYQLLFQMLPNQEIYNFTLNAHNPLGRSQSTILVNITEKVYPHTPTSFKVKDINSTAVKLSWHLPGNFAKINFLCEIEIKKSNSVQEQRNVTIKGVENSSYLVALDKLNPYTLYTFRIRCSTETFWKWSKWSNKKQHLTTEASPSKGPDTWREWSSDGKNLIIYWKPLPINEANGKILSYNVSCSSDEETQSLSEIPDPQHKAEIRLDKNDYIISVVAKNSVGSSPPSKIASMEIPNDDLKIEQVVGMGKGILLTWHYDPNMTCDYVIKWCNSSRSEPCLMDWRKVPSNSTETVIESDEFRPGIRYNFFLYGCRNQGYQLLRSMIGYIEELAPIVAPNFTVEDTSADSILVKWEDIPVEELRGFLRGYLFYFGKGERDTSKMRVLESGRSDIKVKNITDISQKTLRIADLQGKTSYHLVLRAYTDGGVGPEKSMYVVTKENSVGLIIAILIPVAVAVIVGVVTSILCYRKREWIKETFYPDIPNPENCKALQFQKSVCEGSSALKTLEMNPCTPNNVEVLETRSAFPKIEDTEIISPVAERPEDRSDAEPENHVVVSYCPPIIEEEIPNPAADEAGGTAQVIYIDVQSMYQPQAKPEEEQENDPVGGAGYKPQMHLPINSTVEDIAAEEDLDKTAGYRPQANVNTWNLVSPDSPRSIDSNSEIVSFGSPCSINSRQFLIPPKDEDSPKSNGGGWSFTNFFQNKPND
T1 sequence (P15018 23-202 partner): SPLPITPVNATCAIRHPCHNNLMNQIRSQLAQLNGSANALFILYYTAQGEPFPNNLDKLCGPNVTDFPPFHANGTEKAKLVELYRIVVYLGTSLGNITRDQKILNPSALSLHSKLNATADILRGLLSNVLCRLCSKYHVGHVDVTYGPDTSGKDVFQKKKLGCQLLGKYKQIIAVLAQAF

- IC50: 21.9 ± 2.16 µM
Compound: C=CC[C@]1(O)CCC2C3CCC4=CC(=O)CCC4=C3[C@@H](c3ccc(-c4ccccc4)cc3)C[C@@]21C (stereo partly shown) [LRI-201]
